Measurements as given in the supplement of paper PMC10307832.

Columns and labels:
Assay in all cases: relative viability (nuclei count vs DMSO), 5 days (fraction); higher = more cells survive
[1] = compound: C[C@@H](N)c1ccc(C(=O)Nc2ccnc3[nH]ccc23)cc1 + Cc1cc(Nc2cc(N3CCN(C)CC3)nc(Sc3ccc(NC(=O)C4CC4)cc3)n2)n[nH]1 [Tozasertib] (partner 0.1 µM)
Summary of the method: (§1)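 Relative viability equals treated-well nuclei counts divided by vehicle-well nuclei counts. Counts came from 4× images of lung cancer cell lines grown in 1536-well plates for 5 days after pin-tool dosing on the day after seeding. Dosing used one drug alone or a fixed anchor-drug dose plus five library-drug doses (not always all listed) in √10 steps, and values are medians of duplicate plates.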

[2] = compound: O[C@H]1CC[C@H](Nc2ncc3nc(Nc4c(F)cc(F)cc4F)n([C@H]4CCOC4)c3n2)CC1 [Tanzisertib] + CC(=O)c1c(C)c2cnc(Nc3ccc(N4CCNCC4)cn3)nc2n(C2CCCC2)c1=O [Palbociclib] (partner 0.5 µM)
Summary of the method: as §1

[3] = compound: O[C@H]1CC[C@H](Nc2ncc3nc(Nc4c(F)cc(F)cc4F)n([C@H]4CCOC4)c3n2)CC1 [Tanzisertib] + Cc1nc(NC(=O)N2CCC[C@H]2C(N)=O)sc1-c1ccnc(C(C)(C)C(F)(F)F)c1 [Alpelisib] (partner 2 µM)
Summary of the method: as §1

[4] = compound: O[C@H]1CC[C@H](Nc2ncc3nc(Nc4c(F)cc(F)cc4F)n([C@H]4CCOC4)c3n2)CC1 [Tanzisertib] + Nc1ncn([C@H]2C[C@H](O)[C@@H](CO)O2)c(=O)n1 [Decitabine] (partner 2 µM)
Summary of the method: as §1

| Cell Line | relative viability ([1]; first compound 0.04 µM) | relative viability ([1]; first compound 0.1265 µM) | relative viability ([1]; first compound 0.4 µM) | relative viability ([1]; first compound 1.265 µM) | relative viability ([1]; first compound 4 µM) | relative viability ([2]; first compound 0.08 µM) | relative viability ([2]; first compound 0.253 µM) | relative viability ([2]; first compound 0.8 µM) | relative viability ([2]; first compound 2.53 µM) | relative viability ([2]; first compound 8 µM) | relative viability ([3]; first compound 0.08 µM) | relative viability ([3]; first compound 0.253 µM) | relative viability ([3]; first compound 0.8 µM) | relative viability ([3]; first compound 2.53 µM) | relative viability ([3]; first compound 8 µM) | relative viability ([4]; first compound 0.08 µM) | relative viability ([4]; first compound 0.253 µM) | relative viability ([4]; first compound 0.8 µM) | relative viability ([4]; first compound 2.53 µM) | relative viability ([4]; first compound 8 µM) |
| --- | --- | --- | --- | --- | --- | --- | --- | --- | --- | --- | --- | --- | --- | --- | --- | --- | --- | --- | --- | --- |
| NCI-H647 | 0.322 | 0.227 | 0.426 | 0.324 | 0.303 | 0.364 | 0.506 | 0.381 | 0.427 | 0.439 | 1.12 | 1.31 | 1.16 | 1.26 | 1.08 | 0.437 | 0.329 | 0.334 | 0.457 | 0.578 |
| NCI-H1755 | 0.568 | 0.602 | 0.725 | 0.581 | 0.559 | 0.434 | 0.453 | 0.433 | 0.44 | 0.439 | 1.05 | 0.897 | 0.918 | 0.84 | 0.852 | 0.737 | 0.701 | 0.705 | 0.754 | 0.726 |
| EPLC-272H | 0.304 | 0.322 | 0.531 | 0.287 | 0.188 | 0.374 | 0.316 | 0.326 | 0.306 | 0.287 | 0.998 | 0.942 | 0.951 | 1.01 | 0.971 | 0.43 | 0.366 | 0.43 | 0.381 | 0.353 |
| NCI-H1437 | 0.462 | 0.433 | 0.448 | 0.436 | 0.408 | 0.333 | 0.291 | 0.315 | 0.32 | 0.262 | 0.998 | 1 | 0.964 | 0.958 | 0.722 | 0.622 | 0.572 | 0.606 | 0.629 | 0.533 |
| EKVX | 0.421 | 0.379 | 0.494 | 0.44 | 0.438 | 0.455 | 0.388 | 0.363 | 0.414 | 0.355 | 0.72 | 0.846 | 0.952 | 0.832 | 0.685 | 0.371 | 0.356 | 0.41 | 0.323 | 0.324 |
| NCI-H1651 | 0.844 | 0.602 | 0.798 | 0.871 | 0.885 | 0.552 | 0.537 | 0.508 | 0.502 | 0.519 | 1.17 | 0.934 | 1.01 | 0.988 | 0.817 | 0.615 | 0.66 | 0.474 | 0.591 | 0.537 |
| HCC-15 | 0.519 | 0.332 | 0.507 |  | 0.657 | 0.794 | 0.73 | 0.737 | 0.752 | 0.713 | 1.04 | 0.884 | 0.924 | 0.874 | 0.797 | 0.66 | 0.674 | 0.737 | 0.659 | 0.647 |
| LCLC-103H | 0.502 | 0.482 | 0.51 | 0.421 | 0.388 | 0.519 | 0.466 | 0.486 | 0.456 | 0.465 | 0.983 | 0.94 | 0.965 | 0.981 | 0.923 | 0.763 | 0.768 | 0.711 | 0.672 | 0.72 |
| NCI-H23 | 0.377 | 0.358 | 0.425 |  | 0.501 | 0.479 | 0.53 | 0.512 | 0.493 | 0.514 | 0.63 | 0.617 | 0.705 | 0.747 | 0.718 | 0.3 | 0.301 | 0.32 | 0.282 | 0.374 |
| NCI-H460 | 0.606 | 0.405 | 0.571 | 0.392 | 0.771 | 0.199 | 0.193 | 0.113 | 0.161 | 0.13 | 0.716 | 0.441 | 0.477 | 0.356 | 0.286 | 0.54 | 0.465 | 0.479 | 0.467 | 0.497 |
| HCC-366 | 0.141 | 0.169 | 0.132 |  | 0.229 |  | 0.395 | 0.424 | 0.368 | 0.384 | 0.438 | 0.346 | 0.295 | 0.377 | 0.287 |  | 0.381 | 0.382 | 0.348 | 0.254 |
| NCI-H2085 | 0.865 | 0.772 | 0.694 |  | 0.722 |  | 0.456 | 0.454 | 0.455 | 0.505 | 0.997 | 0.96 | 0.966 | 0.948 | 1.01 |  | 0.603 | 0.583 | 0.54 | 0.549 |
| PC-14 | 0.518 | 0.577 | 0.543 | 0.385 | 0.429 | 0.681 | 0.533 | 0.589 | 0.532 | 0.208 | 0.942 | 0.947 | 0.943 | 0.873 | 0.57 | 0.261 | 0.23 | 0.212 | 0.192 | 0.202 |
| HOP-62 | 0.328 | 0.351 | 0.369 | 0.398 | 0.297 | 0.411 | 0.451 | 0.464 | 0.491 | 0.525 | 0.956 | 1.1 | 1.02 | 1.11 | 1.16 | 0.212 | 0.236 | 0.217 | 0.248 | 0.215 |
| NCI-H2087 | 0.324 | 0.235 | 0.274 |  | 0.181 | 0.256 | 0.308 | 0.254 | 0.235 | 0.255 | 1.27 | 1.22 | 1.24 | 1.11 | 1.32 | 0.35 | 0.268 | 0.276 | 0.244 | 0.33 |
| NCI-H1793 | 0.447 | 0.32 | 0.367 |  | 0.378 | 0.306 | 0.326 | 0.347 | 0.293 | 0.303 | 0.842 | 0.532 | 0.754 | 0.754 | 0.733 | 0.533 | 0.48 | 0.509 | 0.51 | 0.453 |
